Results reported in patent US7012089B2, “[1,4]Diazocino[7,8,1-hi]indole derivatives as antipsychotic and antiobesity agents” (Wyeth, priority 2002, dated 2006).
Where a name gives a salt, the structure may show the parent alone. Read-outs that look alike come from different tables or passages of the source.

Columns and labels:
[1] = target: T1, human 5-hydroxytryptamine-2C (h-5-HT2C) receptor (Homo sapiens, UniProt P28335); assay: [125I]DOI binding to membranes of CHO cells expressing the h-5-HT2C receptor
T1 sequence (P28335 33-458): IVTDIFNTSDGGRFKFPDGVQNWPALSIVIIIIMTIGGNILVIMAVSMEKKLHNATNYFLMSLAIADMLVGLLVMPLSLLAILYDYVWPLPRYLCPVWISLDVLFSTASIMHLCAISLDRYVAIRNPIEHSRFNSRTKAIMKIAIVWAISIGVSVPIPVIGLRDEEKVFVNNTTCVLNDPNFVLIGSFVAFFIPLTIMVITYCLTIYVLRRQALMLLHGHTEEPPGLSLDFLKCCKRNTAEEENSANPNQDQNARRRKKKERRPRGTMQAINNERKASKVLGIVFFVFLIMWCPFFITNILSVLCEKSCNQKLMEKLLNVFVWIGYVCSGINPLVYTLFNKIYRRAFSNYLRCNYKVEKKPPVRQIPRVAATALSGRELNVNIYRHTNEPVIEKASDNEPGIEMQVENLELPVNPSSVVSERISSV

human 5-HT2C receptor = target: T2, human 5-HT2C receptor (Homo sapiens, UniProt P28335); assay: 5-HT2C receptor-stimulated calcium mobilization (FLIPR) in CHO cells; type: cell-based; conditions: for Emax: CHO, read-out: 5-HT2C Function Emax (%)
T2 sequence (P28335 33-458): T1 sequence (P28335 33-458)

[2] = 5-HT2c Affinity KI (nM), displacement of [125I]DOI, CHO cell membranes

Row | Structure (SMILES) | melting point [°C] | also measured
1 | CN1CCc2c(Cl)ccc3c4c(n(c23)CC1)CCC4 [Example 12, 6-Chloro-3-methyl-2,3,4,5,10,11-hexahydro-1H,9H-cyclopenta[b][1,4]diazocino[7,8,1-hi]indole] | 138 to 140 | Ki ([1]; read-out: 5-HT2c Affinity KI): 250 nM
2 | CN1CCc2c(Cl)ccc3c4c(n(c23)CC1)CCCCC4 [Example 14, 6-Chloro-3-methyl-2,3,4,5,10,11,12,13-octahydro-1H,9H-cyclohepta[b][1,4]diazocino[7,8,1-hi]indole] | 132 to 134 | Ki ([1]; read-out: 5-HT2c Affinity KI): 250 nM
3 | CN1CCc2c(Cl)ccc3c4c(n(c23)CC1)CCCC4 [Example 13, 6-Chloro-3-methyl-2,3,4,5,9,10,11,12-octahydro-1H-[1,4]diazocino[7,8,1-jk]carbazole] | 128 to 130 | Ki [1, 2]: 34 nM
4 | Clc1ccc2c3c1C1CCCC1N3CCNCC2 (stereo not drawn) (as salt: fumarate) [Example 40, 8-Chloro-2,3,4,5,9,10,11,11a-octahydro-1H,8bH-cyclopenta[b][1,4]diazocino[7,8,1-hi]indole] | 169 to 170 | 
5 | Clc1ccc2c3c1CCNCCN3C1CCCCCC21 (stereo not drawn) (as salt: fumarate) [Example 22, 6-Chloro-2,3,4,5,9,10,11,12,13,13a-decahydro-1H,8bH-cyclohepta[b][1,4]diazocino[7,8,1-hi]indole] | 168 to 170 | 
6 | CN1CCc2cccc3c4c(n(c23)CC1)CCSC4 [Example 11, 3-Methyl-2,3,4,5,11,12-hexahydro-1H,9H-[1,4]diazocino[7,8,1-hi]thiopyrano[4,3-b]indole] | 123 to 125 | Ki [1, 2]: 38 nM
7 | Fc1ccc2c3c1[C@H]1CCCC[C@H]1N3CCNCC2 (single isomer, unassigned) (as salt: fumarate) [Example 33, (−)-(8bR*,12aR*)-8-Fluoro-2,3,4,5,8b,9,10,11,12,12a-decahydro-1H-[1,4]diazocino[7,8,1-jk]carbazole] | 94 to 96 | 
8 | c1cc2c3c(c1)C1CCCC1N3CCNCC2 (stereo not drawn) (as salt: hydrochloride) [Example 4, 2,3,4,5,9,10,11,11a-Octahydro-1H,8bH-cyclopenta[b][1,4]diazocino[7,8,1-hi]indole] | 137 to 140 | 
9 | CN1CCc2cccc3c4c(n(c23)CC1)CCCC4 [Example 5] | 129 to 131 | EC50 (human 5-HT2C receptor): 68 nM; Emax (human 5-HT2C receptor): 50%; Ki [1, 2]: 10 nM
10 | Fc1ccc2c3c1C1CCCC1N3CCNCC2 (stereo not drawn) (as salt: fumarate) [Example 30, 8-Fluoro-2,3,4,5,9,10,11,11a-octahydro-1H,8bH-cyclopenta[b][1,4]diazocino[7,8,1-hi]indole] | 169 to 170 | 
11 | CN1CCc2ccc(F)c3c4c(n(c23)CC1)CCC4 (as salt: fumarate) [Example 24, 8-Fluoro-3-methyl-2,3,4,5,10,11-hexahydro-1H,9H-cyclopenta[b][1,4]diazocino[7,8,1-hi]indole] | 168 to 170 | 
12 | c1cc2c3c(c1)[C@H]1CCC[C@H]1N3CCNCC2 (single isomer, unassigned) (as salt: hydrochloride) [Example 45, (+)-(8bR*,11aR*)-2,3,4,5,9,10,11,11a-Octahydro-1H,8bH-cyclopenta[b][1,4]diazocino[7,8,1-hi]indole] | > 130 | 
13 | Clc1ccc2c3c(n4c2c1CCNCC4)CCCCC3 (as salt: fumarate) [Example 19, 6-Chloro-2,3,4,5,10,11,12,13-octahydro-1H,9H-cyclohepta[b][1,4]diazocino[7,8,1-hi]indole] | 208 to 210 | 
14 | CN1CCc2c(Cl)ccc3c2N(CC1)C1CCCC31 (stereo not drawn) (as salt: fumarate) [Example 15, 6-Chloro-3-Methyl-2,3,4,5,9,10,11,11a-octahydro-1H,8bH-cyclopenta[b][1,4]diazocino[7,8,1-hi]indole] | 196 to 199 | 
15 | Fc1ccc2c3c1[C@H]1CCCC[C@H]1N3CCNCC2 (single isomer, unassigned) (as salt: fumarate) [Example 32, (+)-(8bR*,12aR*)-8-Fluoro-2,3,4,5,8b,9,10,11,12,12a-decahydro-1H-[1,4]diazocino[7,8,1-jk]carbazole] | > 130 | 
16 | Clc1ccc2c3c1c1c(n3CCNCC2)CCC1 (as salt: fumarate) [Example 38, 8-Chloro-2,3,4,5,10,11-hexahydro-1H,9H-cyclopenta[b][1,4]diazocino[7,8,1-hi]indole] | 226 to 228 | 
17 | CN1CCc2cccc3c4c(n(c23)CC1)CCC4 [Example 1, 3-Methyl-2,3,4,5,10,11-hexahydro-1H,9H-cyclopenta[b][1,4]diazocino[7,8,1-hi]indole] | 128 to 130 | EC50 (human 5-HT2C receptor): 48 nM; Emax (human 5-HT2C receptor): 45%; Ki [1, 2]: 35 nM
18 | CCN1CCc2c(Cl)ccc3c2N(CC1)C1CCCCC31 (stereo not drawn) (as salt: fumarate) [Example 23, 6-Chloro-3-ethyl-2,3,4,5,8b,9,10,11,12,12a-decahydro-1H-[1,4]diazocino[7,8,1-jk]carbazole] | 184 to 187 | 
19 | c1cc2c3c(c1)c1c(n3CCNCC2)CCCC1 (as salt: fumarate) [Example 6, 2,3,4,5,9,10,11,12-Octahydro-1H-[1,4]diazocino[7,8,1-jk]carbazole] | 174 to 176 | 
20 | Clc1ccc2c3c(n4c2c1CCNCC4)CCCC3 (as salt: fumarate) [Example 18, 6-Chloro-2,3,4,5,9,10,11,12-octahydro-1H-[1,4]diazocino[7,8,1-jk]carbazole] | 208 to 210 | 
